How the values were obtained:
Assay type in all cases: in vivo, New Zealand white rabbits
[1] = tested on: bleb tissue; assay: Neovascularization in bleb tissue by H&E staining (number of capillaries); settings: rabbit modified trabeculectomy, low-power field in center of injured area, vs untreated
Experimental: FIGS. 2A-2B: Arrested angiogenesis in treated blebs. Neovascularization in the bleb tissue was assessed using H&E staining. (FIG. 2A) Quantitation of the number of capillaries, as determined by morphology, with a low-power field in the center of the injured area is shown in the graph. The data was derived from two independent experiments of at least three globes with each evaluated in three random low-power fields (shown are mean±SD, *P<0.05). […] Original magnifications ×100.
(§1) In the following studies, modified trabeculectomy was performed in New Zealand white rabbits using a 22 gauge angiocatheter inserted into the anterior chamber. Rabbit eyes were either untreated or treated with IP-10FL (SEQ ID NO: 12) or IP-10p (SEQ ID NO: 13) by intraoperative topical application. Untreated and injured bleb formation was confirmed and assessed weekly after the procedure. All animals were euthanized at the end of the six week study.
Next, angiogenesis was evaluated in treated and untreated blebs. Neovascularization in the bleb tissue was assessed by H&E staining.

[2] = tested on: conjunctival goblet cells; assay: Goblet cell number in treated blebs after modified trabeculectomy; settings: rabbit modified trabeculectomy, average cell number per high-powered field, six central bleb cross-sections, vs untreated
Experimental: FIGS. 4A-4B: Increased goblet cells in treated blebs. […] (FIG. 4A) Goblet cell number was calculated using the average cell number per high-powered field from six consecutive central bleb cross-sections of each specimen. (FIG. 4B) Representative images (Masson's trichrome stain) show the number of conjunctival goblet cells (asterisks).
as §1
Goblet cells were also evaluated in treated and untreated blebs.

[3] = tested on: bleb tissue; assay: Histological grading of blebs after modified trabeculectomy (H&E, Masson's trichrome); settings: rabbit modified trabeculectomy, intraoperative topical application, six week study, vs untreated
Experimental: as §1
To evaluate histological differences in treated and untreated blebs, the globes were embedded in paraffin and stained with hematoxylin and eosin (H&E) and Masson's trichrome. A-semi quantitative histological grading score was used to assess cellularity, collagen deposition (fibrosis) and inflammation to compare findings between the four animal groups (uninjured, control (injured), IP-10 full length treated and IP-10p treated).

[4] = tested on: bleb tissue; assay: Collagen in bleb tissue, Masson's trichrome staining with METAMORPH analysis; settings: rabbit modified trabeculectomy, vs untreated
Experimental: FIGS. 3A-3B: Decreased fibrosis in treated blebs. […] Collagen was quantified using Masson's trichrome staining. […] Original magnifications ×100.
as §1
Collagen was quantified using Masson's trichrome staining.

[5] = tested on: conjunctival goblet cells; assay: Goblet cells in blebs treated with MMC, IP-10p or IP-10p as perioperative rescue at MMC surgery; settings: rabbit modified trabeculectomy; MMC alone, or MMC then IP-10p as perioperative rescue
Experimental: FIGS. 5A-5B: Goblet cells in treated and untreated blebs. (FIG. 5A) Goblet cells were evaluated in treated and untreated blebs. Bleb tissue was treated with MMC alone, IP-10p alone, or IP-10p as a perioperative “rescue” treatment at the time of MMC surgery.
Modified trabeculectomy was performed in New Zealand white rabbits using a 22 gauge angiocatheter inserted into the anterior chamber.

Substance | number of capillaries present in blebs [1] | number of goblet cells in bleb tissue [2] | inflammation and fibrosis (semi-quantitative histological grading score; collagen content, elastic fiber thickness and orientation) [3] | collagen deposition in bleb tissue [4] | goblet cells / goblet cell density in bleb tissue [5]
IP-10FL: Human IP-10 variant (IP-10FL), SEQ ID NO: 12; CXCR3 activator | significantly reduced the number of capillaries | increase in the number of goblet cells | reduction in inflammation and fibrosis | significantly less collagen | –
IP-10p: Human IP-10 fragment/variant, SEQ ID NO: 13, PESKAIKNLLKAVSKEMSKRSP | significantly reduced the number of capillaries | increase in the number of goblet cells | reduction in inflammation and fibrosis | significantly less collagen | –
mitomycin C [MMC] | – | – | – | – | marked decrease in goblet cells
